From publication PMC8001000, “Pitfalls in the Immunochemical Determination of β-Lactam Antibiotics in Water” (Antibiotics, 2021)
Like-named read-outs stand apart in the source and are kept apart here.

Legend:
[1] = test system: monoclonal mouse anti-AMX antibody A1463 (clone 1.BB.832); assay: indirect competitive ELISA (calibration curves of β-lactams and hydrolysis products); format: binding; settings: for IC50: read-out: IC50 (ELISA calibration curve); for reduction of LOD by hydrolysis: after hydrolysis
Method: For the preparation of standards (calibrators), stock solutions of each compound with a mass concentration of approximately 1 g/L were prepared gravimetrically by weighing the respective compound and amount of solvent. Solvents for these stock solutions were ethanol for amoxicillin piperazine-2,5-dione and 3-(4-hydroxyphenyl)pyrazin-2-ol, or Milli-Q water for all other compounds. Standard solutions of each compound were prepared volumetrically by serial dilution of the respective stock solution in Milli-Q water. All standards and stock solutions were stored at 4 °C in the amber glass vials.
(§1) For hydrolysis, standards and samples were diluted in 0.1 M sodium hydroxide solution (1:1) the day before analysis in the assay, i.e., the day of coating (see below), and stored at 4 °C until the next day. Samples for reference analysis without hydrolysis were diluted in Milli-Q water (1:1) prior to analysis.
Each cavity of a 96-well microplate was coated with AMX-HSA (or alternatively AMX-BSA) in PBS (47.619 ng/L, 200 µL/well) and incubated for 18 h at RT with shaking at 750 rpm. Afterwards the plate was washed three times with washing buffer (1:60 dilution of washing buffer 60x in Milli-Q water) and the cavities were blocked with 0.1% (w/v) casein in PBS (200 µL/well) for 1 h at 750 rpm and RT. After repeated washing, standards/samples (100 µL/well) and primary antibody (dilution 1:20,000 in Tris for preliminary and cross-reactivity studies, in sample buffer pH 7.6 for sample analysis or in sample buffer pH 8.5 for reference analysis for degree of hydrolysis; 100 µL/well) were added and incubated for 1 h at 750 rpm and RT. Following another washing step, the plate was incubated with secondary antibody (95.238 ng/L, 200 µL/well) for 1 h at 750 rpm at RT. After final washing, cavities were filled with freshly prepared substrate solution (22 mL citrate buffer, 8.5 µL hydrogen peroxide solution, 550 µL TMB stock solution; 200 µL/well) and shaken for 10 min (preliminary and cross-reactivity studies) or 20 min (sample analysis, degree of hydrolysis) at 750 rpm for blue color development. […] Optical density was read at RT at a wavelength of 450 nm with reference at 620 nm. Data points were plotted in Origin® 2019 (OriginLab, Northampton, MA, USA), calibration curves were obtained by fitting a four-parameter logistic function to the measured data points and sample concentrations were determined by correlating concentration values of hydrolyzed standards with O.D. values of hydrolyzed and non-hydrolyzed samples. Each standard (8 per plate) and sample (24 per plate) was analyzed in triplicate with random distribution across the plate to reduce edge effects.

[2] = hydrolysis of AMX in standard solutions and water samples, followed by ELISA; format: physicochemical; settings: for reaction time after which no further shift in the calibration curve was observable (hydrolysis): 0.1 M NaOH
Method: While developing and optimizing an indirect competitive ELISA for the determination of AMX, we observed a significant shift in the calibration curves obtained for differently aged standard solutions (calibrators) of AMX in water. […] This shift reached its end point after two months of storage at 4 °C and could be ascribed to hydrolysis of the parent drug by hydrolyzing standard solutions of AMX in 0.1 M NaOH, which yielded a similar calibration curve in the ELISA (see Figure 2).
In order to examine the degree of hydrolysis of AMX in these samples, a parallel analysis in the ELISA without pretreatment with 0.1 M NaOH was carried out and concentration values determined with and without hydrolysis were compared. […] Because of the antibody’s lower affinity towards unhydrolyzed AMX (higher IC50), higher O.D. values are found which correlate with lower concentration values in the calibration curve. This was the case for all of the tested mineral waters after 20 h. Contrarily, for tap water samples (P1–P4) the analysis without hydrolysis led to higher concentration values than the assay featuring hydrolysis, implying that hydrolysis of AMX had already occurred in these samples. […] The reason for that may lie in general properties of tap water containing particles or metal ions, e.g., Cu^2+, which can serve as catalysts for AMX hydrolysis. Furthermore, the storage of the water samples might have an effect as tap water for sample preparation was collected and stored in a glass bottle whereas mineral water samples were taken directly from plastic bottles. Anyhow, the influence of the pH value of the water can be ruled out since the values were within a range from 6.6 to 8.0 and no general trend was observable. The same holds true for ionic constituents (see Supplementary Table S1).
as §1

[3] = non-hydrolyzed standard solutions (freshly prepared / before hydrolysis; pure compounds)
[4] = standards after alkaline hydrolysis (0.1 M NaOH, 24 h at 4 °C)

Row | IC50 [1, 3] | IC50 [1, 4] | Structure (SMILES) | further results
1 | 1.47 ± 0.12 µM | 0.0381 ± 0.0036 µM | CC1(C)S[C@@H]2[C@H](NC(=O)[C@H](N)c3ccc(O)cc3)C(=O)N2[C@H]1C(=O)O [AMX, amoxicillin] | IC50 ([1]; standard solutions aged for 2 months at 4 °C in water): 0.0522 ± 0.0044 µM; reaction time after which no further shift in the calibration curve was observable (hydrolysis) ([2]; pH 12.5, 4 °C): 18 h; reaction time after which no further shift in the calibration curve was observable (hydrolysis) ([2]; pH 12.5, RT): 3 h; rate of hydrolysis in drinking water samples ([2]; spiked tap water vs bottled mineral water, after 20 h): much faster in tap water than in bottled mineral water; storage time until shift of calibration curve reached its end point (hydrolysis) ([2]; standard solutions in water, storage at 4 °C): two
2 | 0.7 ± 0.07 µM | 0.0111 ± 0.0017 µM | CC1(C)S[C@@H]2[C@H](NC(=O)Cc3ccccc3)C(=O)N2[C@H]1C(=O)O [PenG, penicillin G] | reduction of LOD by hydrolysis [1]: 85%
3 | 0.00748 ± 0.00058 µM | – | CC1(C)SC(C(NC(=O)[C@H](N)c2ccc(O)cc2)C(=O)O)NC1C(=O)O (some centres unmarked) [HP1, amoxicilloic acid] | fold higher affinity of the antibody than to the parent drug AMX ([1]; HP1 vs AMX): approximately 200 fold
4 | 0.702 ± 0.066 µM | 0.0116 ± 0.0025 µM | CC1(C)S[C@@H]2[C@H](NC(=O)COc3ccccc3)C(=O)N2[C@H]1C(=O)O [PenV, penicillin V] | reduction of LOD by hydrolysis [1]: 85%
5 | 1.35 ± 0.13 µM | 0.0362 ± 0.0037 µM | CC1(C)S[C@@H]2[C@H](NC(=O)[C@H](N)c3ccccc3)C(=O)N2[C@H]1C(=O)O [AMP, ampicillin] | –
6 | 0.011 ± 0.0004 µM | 0.0038 ± 0.0005 µM | CC1(C)S[C@@H]2[C@H](NC(=O)C(C(=O)O)c3ccccc3)C(=O)N2[C@H]1C(=O)O (some centres unmarked) [CRB, carbenicillin] | –
7 | 28.7 µM | – | CC1(C)SC(C2NC(=O)C(c3ccc(O)cc3)NC2=O)NC1C(=O)O (centres unmarked) [HP2, amoxicillin piperazine-2,5-dione] | –
